One may read the IC50 as the concentration needed to halve the response being measured.

The source of these data is patent US20180118718A1, “Substituted Quinoxaline Derivatives” (Selvita S.A., priority 2015, published 2018).

The experiment deals with T1, Human recombinant His-tagged PFKFB3 (Homo sapiens, UniProt Q16875).
T1 construct: His; made in house
The experiment can be described thus: PFKFB3 IC50 Determination Assay (in vitro kinase assay, modified ADP-Glo system). The experiment is classed as biochemical. The conditions noted are these: ATP 20 μM and fructose-6-phosphate 2 μM (Km), 25 nM PFKFB3, 2 h, rt, ADP-Glo luminescence. A digest of the protocol:
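In-house His-tagged human PFKFB3 phosphorylates fructose-6-phosphate with ATP and substrate at Km; ADP measured by luminescence with 5x-diluted ADP-Glo reagents. Compounds tested at 10 concentrations, routinely 100 μM to 1 nM, in duplicate, 6.7% final DMSO. Data normalized to no-substrate control, expressed as % positive control; IC50 by four-parameter fit.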

T1 sequence (Q16875 whole entry): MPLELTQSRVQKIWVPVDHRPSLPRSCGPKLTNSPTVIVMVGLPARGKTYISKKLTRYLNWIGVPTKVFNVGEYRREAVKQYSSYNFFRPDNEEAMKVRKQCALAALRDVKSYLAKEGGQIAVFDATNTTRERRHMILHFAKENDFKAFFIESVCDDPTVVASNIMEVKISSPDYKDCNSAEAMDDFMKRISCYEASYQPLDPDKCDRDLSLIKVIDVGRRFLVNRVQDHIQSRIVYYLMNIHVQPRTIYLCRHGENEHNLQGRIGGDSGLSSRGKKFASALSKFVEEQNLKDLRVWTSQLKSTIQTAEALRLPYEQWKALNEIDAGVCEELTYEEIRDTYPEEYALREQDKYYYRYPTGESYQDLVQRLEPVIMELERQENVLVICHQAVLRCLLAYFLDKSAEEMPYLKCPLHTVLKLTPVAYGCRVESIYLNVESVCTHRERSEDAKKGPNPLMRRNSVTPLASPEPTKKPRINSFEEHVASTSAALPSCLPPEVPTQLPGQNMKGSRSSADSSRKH

Consider `CN(C)Cc1ccccc1Nc1cc(-c2ccc3ccn(C)c3c2)c2nccnc2c1` [Example 176, N-{2-[(Dimethylamino)methyl]phenyl}-8-(1-methyl-1H-indol-6-yl)quinoxalin-6-amine], for which the half-inhibitory concentration (IC50) was 1 to 1000 nM.
With `Cn1ccc2ccc(-c3cc(Nc4ccccc4C(=O)O)cc4nccnc34)cc21` [Example 178, 2-{[8-(1-Methyl-1H-indol-6-yl)quinoxalin-6-yl]amino}benzoic acid] the figure was 1 to 1000 nM; with `Cn1ccc2ccc(-c3cc(Nc4cnccc4C(=O)O)cc4nccnc34)cc21` [Example 179, 3-{[8-(1-Methyl-1H-indol-6-yl)quinoxalin-6-yl]amino}pyridine-4-carboxylic acid], 1 to 1000 nM.
Under `CN1CCC(NC(=O)c2ccccc2Nc2cc(-c3ccc4ccn(C)c4c3)c3nccnc3c2)C1` (stereo not drawn) [Example 183, 2-{[8-(1-Methyl-1H-indol-6-yl)quinoxalin-6-yl]amino}-N-(1-methylpyrrolidin-3-yl)benzamide] stands 1 to 1000 nM.
With `CS(=O)(=O)c1ccncc1Nc1cc(-c2ccc(N)c(F)c2)c2nccnc2c1` [Example 186, 8-(4-Amino-3-fluorophenyl)-N-(4-methanesulfonylpyridin-3-yl)quinoxalin-6-amine] the figure was 1 to 1000 nM; with `CS(=O)(=O)c1ccncc1Nc1cc(-c2ccc(F)cc2)c2nccnc2c1` [Example 188, 8-(4-Fluorophenyl)-N-(4-methanesulfonylpyridin-3-yl)quinoxalin-6-amine], 1 to 1000 nM; with `CS(=O)(=O)c1ccccc1Nc1cc(-c2ccc3sc(N)nc3c2)c2nccnc2c1` [Example 190, 8-(2-Amino-1,3-benzothiazol-5-yl)-N-(2-methanesulfonylphenyl)quinoxalin-6-amine], 1 to 1000 nM.
As to `Cc1csc2ccc(-c3cc(Nc4ccccc4S(C)(=O)=O)cc4nccnc34)cc12` [Example 191, N-(2-Methanesulfonylphenyl)-8-(3-methyl-1-benzothiophen-5-yl)quinoxalin-6-amine], the IC50 lay in the range of 1 to 1000 nM.
In the case of `CCc1cc(CC)cc(-c2cc(Nc3cnccc3S(C)(=O)=O)cc3nccnc23)c1` [Example 192, 8-(3,5-Diethylphenyl)-N-(4-methanesulfonylpyridin-3-yl)quinoxalin-6-amine], the IC50 was in the range of 1000 to 10000 nM.
For `Cc1cc2ccn(C)c2cc1-c1cc(Nc2cnccc2S(C)(=O)=O)cc2nccnc12` [Example 195, 8-(1,5-Dimethyl-1H-indol-6-yl)-N-(4-methanesulfonylpyridin-3-yl)quinoxalin-6-amine], the IC50 fell in the range of 1 to 1000 nM.
Under `Cn1ccc2ccc(-c3cc(Oc4cnccc4C(=O)O)cc4nccnc34)cc21` [Example 198, 3-{[8-(1-methyl-1H-indol-6-yl)quinoxalin-6-yl]oxy}pyridine-4-carboxylic acid] stands 10000 to 100000 nM; under `Cc1csc2ccc(-c3cc(Nc4ccccc4S(=O)(=O)NC4CCN(C)C4)cc4nccnc34)cc12` (stereo not drawn) [Example 199, 2-{[8-(3-Methyl-1-benzothiophen-5-yl)quinoxalin-6-yl]amino}-N-(1-methylpyrrolidin-3-yl)benzene-1-sulfonamide], 1 to 1000 nM; under `CC(=O)Nc1cc2cc(-c3cc(Nc4cnccc4S(C)(=O)=O)cc4nccnc34)ccc2s1` [Example 200, N-(5-{7-[(4-Methanesulfonylpyridin-3-yl)amino]quinoxalin-5-yl}-1-benzothiophen-2-yl)acetamide], 1000 to 10000 nM.
Under `CN(C)c1nc2cc(-c3cc(Nc4cnccc4S(C)(=O)=O)cc4nccnc34)ccc2s1` [Example 201, 8-[2-(Dimethylamino)-1,3-benzothiazol-5-yl]-N-(4-methanesulfonylpyridin-3-yl)quinoxalin-6-amine] stands 10000 to 100000 nM; under `CNc1nc2cc(-c3cc(Nc4cnccc4S(C)(=O)=O)cc4nccnc34)ccc2s1` [Example 202, N-(4-Methanesulfonylpyridin-3-yl)-8-[2-(methylamino)-1,3-benzothiazol-5-yl]quinoxalin-6-amine], 1000 to 10000 nM; under `Cn1ccc2ccc(-c3cc(Nc4ncncc4Br)cc4nccnc34)cc21` [Example 204, N-(5-Bromopyrimidin-4-yl)-8-(1-methyl-1H-indol-6-yl)quinoxalin-6-amine], 10000 to 100000 nM.
With `Cc1csc2ccc(-c3cc(Nc4cnccc4C(N)=O)cc4nccnc34)cc12` [Example 205, 3-{[8-(3-Methyl-1-benzothiophen-5-yl)quinoxalin-6-yl]amino}pyridine-4-carboxamide] the figure was 1 to 1000 nM.
As for `CC(=O)N1CC(NC(=O)c2ccncc2Nc2cc(-c3ccc4scc(C)c4c3)c3nccnc3c2)C1` [Example 206, N-(1-Acetylazetidin-3-yl)-3-{[8-(3-methyl-1-benzothiophen-5-yl)quinoxalin-6-yl]amino}pyridine-4-carboxamide], the IC50 lay in the range of 1 to 1000 nM.
As to `Cn1ccc2ccc(-c3cc(Nc4cnccc4C(=O)Nc4cccnc4)cc4nccnc34)cc21` [Example 207, 3-{[8-(1-Methyl-1H-indol-6-yl)quinoxalin-6-yl]amino}-N-(pyridin-3-yl)pyridine-4-carboxamide], the 50% inhibitory concentration (IC50) was in the range of 1 to 1000 nM.
Under `Cn1ccc2ccc(-c3cc(Nc4ccccc4S(=O)(=O)NC4CCCOC4)cc4nccnc34)cc21` (stereo not drawn) [Example 209, 2-{[8-(1-Methyl-1H-indol-6-yl)quinoxalin-6-yl]amino}-N-(oxan-3-yl)benzene-1-sulfonamide] stands 1 to 1000 nM; under `CS(=O)(=O)c1ccncc1Nc1cc(-c2ccc(Br)c(F)c2)c2nccnc2c1` [Example 211, 8-(4-Bromo-3-fluorophenyl)-N-(4-methanesulfonylpyridin-3-yl)quinoxalin-6-amine], 1 to 1000 nM; under `Cc1cc(Br)ccc1-c1cc(Nc2cnccc2S(C)(=O)=O)cc2nccnc12` [Example 212, 8-(4-Bromo-2-methylphenyl)-N-(4-methanesulfonylpyridin-3-yl)quinoxalin-6-amine], 1 to 1000 nM.
With `CS(=O)(=O)c1ccncc1Nc1cc(-c2ccc(S(F)(F)(F)(F)F)cc2)c2nccnc2c1` [Example 213, N-(4-Methanesulfonylpyridin-3-yl)-8-[4-(pentafluoro-λ^6-sulfanyl)phenyl]quinoxalin-6-amine] the figure was 10000 to 100000 nM; with `CN1CCC(NC(=O)c2ccncc2Nc2cc(-c3ccc(Br)cc3)c3nccnc3c2)C1` (stereo not drawn) [Example 215, 3-{[8-(4-Bromophenyl)quinoxalin-6-yl]amino}-N-(1-methylpyrrolidin-3-yl)pyridine-4-carboxamide], 1 to 1000 nM.
